Laboratory results published in PubChem BioAssay (NCI).
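Exposure lasted 48 hours, with cells grown in 96-well plates and compounds tested at five concentrations. The concentration for 50% growth inhibition is given as GI50. Definition used: TGI = concentration required for complete inhibition of growth.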

What was measured:
Assay in all cases: NCI tumour cell line growth inhibition, 48 h
[1] = test system: NCI-H23 lung
[2] = test system: TK-10 renal
[3] = test system: CCRF-CEM leukemia
[4] = test system: HT29 colon
[5] = test system: UACC-257 melanoma
[6] = test system: HCC-2998 colon
[7] = test system: NCI-H226 lung
[8] = test system: OVCAR-5 ovarian
[9] = test system: SR leukemia
[10] = test system: HCT-15 colon

SMILES	GI50 [1]	TGI [1]	GI50 [2]	TGI [2]	GI50 [3]	TGI [3]	GI50 [4]	TGI [4]	GI50 [5]	TGI [5]	GI50 [6]	TGI [6]	GI50 [7]	TGI [7]	GI50 [8]	TGI [8]	GI50 [9]	TGI [9]	GI50 [10]	TGI [10]
CN(Cc1cc(Br)cc(Br)c1O)Cc1cc(Br)cc(Br)c1O	3.28 µM	22.3 µM	4.26 µM	20.4 µM	1.31 µM	> 100 µM	6.23 µM	19.9 µM	2.44 µM	11.5 µM	3.5 µM	17 µM	4.75 µM	19.8 µM	6.13 µM	21.9 µM	0.675 µM	28.3 µM	0.558 µM	16.9 µM
COc1cc(-c2nc3ccccc3s2)ccc1NC(=O)COc1ccc(Cl)cc1	3.01 µM	25.6 µM	2.68 µM	7.06 µM	> 100 µM	> 100 µM	3.66 µM	> 100 µM	13.5 µM	> 100 µM	18.6 µM	> 100 µM	4.31 µM	59.2 µM	13.4 µM	> 100 µM	76.5 µM	> 100 µM	> 100 µM	> 100 µM
C[C@]12CC[C@H](O)C[C@H]1CC[C@@H]1[C@@H]2CC[C@]2(C)[C@@H](C3=CC(=O)OC3)[C@@H](O)C[C@]12O	–	2.47 µM	–	1.99 µM	–	2.42 µM	–	11 µM	–	5.46 µM	–	6.7 µM	–	9.8 µM	–	8.03 µM	–	3.63 µM	–	7.21 µM
COC1CCN(C(=O)c2cc(Cc3n[nH]c(=O)c4ccccc34)ccc2F)CC1	51.7 µM	> 100 µM	> 100 µM	> 100 µM	43.9 µM	> 100 µM	> 100 µM	> 100 µM	> 83.2 µM	> 100 µM	> 100 µM	> 100 µM	89.2 µM	> 100 µM	> 100 µM	> 100 µM	21.7 µM	> 100 µM	> 100 µM	> 100 µM
CC1C[C@H](C)CC(C(O)CC2CC(=O)N(Cc3ccccc3)C(=O)C2)C1O (stereo partly specified)	–	> 100 µM	–	> 100 µM	–	> 100 µM	–	> 100 µM	–	> 100 µM	–	> 100 µM	–	> 100 µM	–	> 100 µM	–	> 100 µM	–	–
Cc1ccc(NC(=O)C(=O)C(C#N)c2nc(-c3ccc(-c4ccccc4)cc3)cs2)c(C)c1 (stereo unspecified)	–	> 1 µM	–	> 100 µM	–	–	–	> 1 µM	–	> 100 µM	–	> 100 µM	–	> 100 µM	–	> 100 µM	–	> 100 µM	–	> 100 µM
OCC(O)C(O)C(O)c1nn(-c2ccc(Cl)cc2)c2nc3cc(Cl)c(Cl)cc3nc12 (stereo unspecified)	–	85.1 µM	–	> 100 µM	–	> 100 µM	–	> 100 µM	–	> 100 µM	–	> 100 µM	–	58.4 µM	–	> 100 µM	–	> 100 µM	–	–
O=C(O)C[C@H]1CCCCC12CCOC2=O (stereo partly specified)	–	> 100 µM	–	> 100 µM	–	> 100 µM	–	> 100 µM	–	> 100 µM	–	> 100 µM	–	> 100 µM	–	> 100 µM	–	> 100 µM	–	–
